From publication PMC4468608, “A distinct p53 target gene set predicts for response to the selective p53–HDM2 inhibitor NVP-CGM097” (eLife, 2015)
Read-outs that look alike come from different tables or passages of the source.

Test system: cell lines from the Cancer Cell Line Encyclopedia (CCLE)
Test: High-throughput cell viability assay, CCLE cell line panel (n = 356)
Type: cell-based, human
Conditions: for IC50: Homo sapiens
Method: Cell lines were partitioned into sensitive and insensitive groups based on compound potency (IC50). […] All other cell lines were obtained from ATCC (American Type Culture Collection), DSMZ (Deutsche Sammlung von Mikroorganismen und Zellkulturen), and HSRRB (Health Science Research Resources Bank) and cultured in RPMI or Dulbecco's modified Eagle's medium plus 10% FBS (Invitrogen, Carlsbad, CA) at 37°C, 5% CO2.

COc1cc2c(cc1OC(C)C)[C@H](c1ccc(Cl)cc1)N(c1ccc(N(C)C[C@H]3CC[C@H](N4CCNC(=O)C4)CC3)cc1)C(=O)C2 [NVP-CFC218]
IC50 (read-out: NVP- CFC218 IC50 (µM), cell line MEL-HO, skin, TP53 WT): > 8 µM
IC50 (read-out: NVP- CFC218 IC50 (µM), cell line NCI-H1341, lung, TP53 WT): > 8 µM
IC50 (read-out: NVP- CFC218 IC50 (µM), cell line PE/CA-PJ41 (clone D2), upper_aerodigestive_tract, TP53 MUT): > 8 µM
IC50 (read-out: NVP- CFC218 IC50 (µM), cell line PEER, haem._and_lymphoid_tissue, TP53 MUT): > 8 µM
IC50 (read-out: NVP- CFC218 IC50 (µM), cell line SNG-M, endometrium, TP53 WT): > 8 µM
IC50 (read-out: NVP- CFC218 IC50 (µM), cell line Sq-1, lung, TP53 WT): > 8 µM
IC50 (read-out: NVP- CFC218 IC50 (µM), cell line TE-9, oesophagus, TP53 MUT): > 8 µM
IC50 (read-out: NVP- CFC218 IC50 (µM), cell line WM-88, skin, TP53 WT): > 8 µM
Amax (Hs 729, TP53 MUT): 7.88%
sensitivity call (Hs 729, TP53 MUT): insensitive (Sensitivity call for each compound was applied according to a cut-off of 4 µM for IC50 and -50% for Amax)
Amax (IGROV1, TP53 MUT): -1.82%
sensitivity call (IGROV1, TP53 MUT): insensitive (Sensitivity call for each compound was applied according to a cut-off of 4 µM for IC50 and -50% for Amax)
Amax (J82, TP53 MUT): -2.55%
sensitivity call (J82, TP53 MUT): insensitive (Sensitivity call for each compound was applied according to a cut-off of 4 µM for IC50 and -50% for Amax)
Amax (JHH-7, TP53 MUT): -2.28%
sensitivity call (JHH-7, TP53 MUT): insensitive (Sensitivity call for each compound was applied according to a cut-off of 4 µM for IC50 and -50% for Amax)
Amax (JHUEM-2, TP53 WT): -91.79%
sensitivity call (JHUEM-2, TP53 WT): sensitive (Sensitivity call for each compound was applied according to a cut-off of 4 µM for IC50 and -50% for Amax)
Amax (JMSU-1, TP53 MUT): 2.12%
sensitivity call (JMSU-1, TP53 MUT): insensitive (Sensitivity call for each compound was applied according to a cut-off of 4 µM for IC50 and -50% for Amax)
Amax (KE-39, TP53 MUT): -5.22%
sensitivity call (KE-39, TP53 MUT): insensitive (Sensitivity call for each compound was applied according to a cut-off of 4 µM for IC50 and -50% for Amax)
Amax (KE-97, TP53 WT): -79.42%
sensitivity call (KE-97, TP53 WT): sensitive (Sensitivity call for each compound was applied according to a cut-off of 4 µM for IC50 and -50% for Amax)
Amax (KMM-1, TP53 MUT): -27.14%
sensitivity call (KMM-1, TP53 MUT): insensitive (Sensitivity call for each compound was applied according to a cut-off of 4 µM for IC50 and -50% for Amax)
Amax (KNS-60, TP53 MUT): -1.47%
sensitivity call (KNS-60, TP53 MUT): insensitive (Sensitivity call for each compound was applied according to a cut-off of 4 µM for IC50 and -50% for Amax)
Amax (KP-N-SI9s, TP53 WT): -92.10%
sensitivity call (KP-N-SI9s, TP53 WT): sensitive (Sensitivity call for each compound was applied according to a cut-off of 4 µM for IC50 and -50% for Amax)
Amax (KU812, TP53 MUT): 19.95%
sensitivity call (KU812, TP53 MUT): insensitive (Sensitivity call for each compound was applied according to a cut-off of 4 µM for IC50 and -50% for Amax)
Amax (KYSE-30, TP53 MUT): -3.88%
sensitivity call (KYSE-30, TP53 MUT): insensitive (Sensitivity call for each compound was applied according to a cut-off of 4 µM for IC50 and -50% for Amax)
Amax (KYSE-70, TP53 MUT): -0.20%
sensitivity call (KYSE-70, TP53 MUT): insensitive (Sensitivity call for each compound was applied according to a cut-off of 4 µM for IC50 and -50% for Amax)
Amax (KYSE-140, TP53 MUT): -19.56%
sensitivity call (KYSE-140, TP53 MUT): insensitive (Sensitivity call for each compound was applied according to a cut-off of 4 µM for IC50 and -50% for Amax)
Amax (KYSE-180, TP53 MUT): -30.58%
sensitivity call (KYSE-180, TP53 MUT): insensitive (Sensitivity call for each compound was applied according to a cut-off of 4 µM for IC50 and -50% for Amax)
Amax (LCLC-103H, TP53 MUT): -1.79%
sensitivity call (LCLC-103H, TP53 MUT): insensitive (Sensitivity call for each compound was applied according to a cut-off of 4 µM for IC50 and -50% for Amax)
Amax (LK-2, TP53 MUT): -3.65%
sensitivity call (LK-2, TP53 MUT): insensitive (Sensitivity call for each compound was applied according to a cut-off of 4 µM for IC50 and -50% for Amax)
Amax (LN-18, TP53 MUT): -16.71%
sensitivity call (LN-18, TP53 MUT): insensitive (Sensitivity call for each compound was applied according to a cut-off of 4 µM for IC50 and -50% for Amax)
Amax (LOU-NH91, TP53 MUT): 2.89%
sensitivity call (LOU-NH91, TP53 MUT): insensitive (Sensitivity call for each compound was applied according to a cut-off of 4 µM for IC50 and -50% for Amax)
Amax (LOX IMVI, TP53 WT): -48.25%
sensitivity call (LOX IMVI, TP53 WT): insensitive (Sensitivity call for each compound was applied according to a cut-off of 4 µM for IC50 and -50% for Amax)
Amax (LU65, TP53 MUT): -1.36%
sensitivity call (LU65, TP53 MUT): insensitive (Sensitivity call for each compound was applied according to a cut-off of 4 µM for IC50 and -50% for Amax)
Amax (MEG-01, TP53 MUT): 0.30%
sensitivity call (MEG-01, TP53 MUT): insensitive (Sensitivity call for each compound was applied according to a cut-off of 4 µM for IC50 and -50% for Amax)
Amax (MKN74, TP53 MUT): 2.29%
sensitivity call (MKN74, TP53 MUT): insensitive (Sensitivity call for each compound was applied according to a cut-off of 4 µM for IC50 and -50% for Amax)
Amax (MOG-G-UVW, TP53 WT): 3.49%
sensitivity call (MOG-G-UVW, TP53 WT): insensitive (Sensitivity call for each compound was applied according to a cut-off of 4 µM for IC50 and -50% for Amax)
Amax (MOLM-16, TP53 MUT): 12.84%
sensitivity call (MOLM-16, TP53 MUT): insensitive (Sensitivity call for each compound was applied according to a cut-off of 4 µM for IC50 and -50% for Amax)
Amax (MeWo, TP53 MUT): 0.14%
sensitivity call (MeWo, TP53 MUT): insensitive (Sensitivity call for each compound was applied according to a cut-off of 4 µM for IC50 and -50% for Amax)
Amax (NCI-H23, TP53 MUT): -1.09%
sensitivity call (NCI-H23, TP53 MUT): insensitive (Sensitivity call for each compound was applied according to a cut-off of 4 µM for IC50 and -50% for Amax)
Amax (NCI-H1355, TP53 MUT): -28.98%
sensitivity call (NCI-H1355, TP53 MUT): insensitive (Sensitivity call for each compound was applied according to a cut-off of 4 µM for IC50 and -50% for Amax)
Amax (NCI-H1648, TP53 MUT): -2.43%
sensitivity call (NCI-H1648, TP53 MUT): insensitive (Sensitivity call for each compound was applied according to a cut-off of 4 µM for IC50 and -50% for Amax)
Amax (NCI-H1651, TP53 MUT): -2.57%
sensitivity call (NCI-H1651, TP53 MUT): insensitive (Sensitivity call for each compound was applied according to a cut-off of 4 µM for IC50 and -50% for Amax)
Amax (NCI-H2009, TP53 MUT): -6.28%
sensitivity call (NCI-H2009, TP53 MUT): insensitive (Sensitivity call for each compound was applied according to a cut-off of 4 µM for IC50 and -50% for Amax)
Amax (NCI-H2110, TP53 MUT): -4.78%
sensitivity call (NCI-H2110, TP53 MUT): insensitive (Sensitivity call for each compound was applied according to a cut-off of 4 µM for IC50 and -50% for Amax)
Amax (NCI-H2122, TP53 MUT): -89.07%
sensitivity call (NCI-H2122, TP53 MUT): sensitive (Sensitivity call for each compound was applied according to a cut-off of 4 µM for IC50 and -50% for Amax)
Amax (NCI-H2444, TP53 MUT): -4.64%
sensitivity call (NCI-H2444, TP53 MUT): insensitive (Sensitivity call for each compound was applied according to a cut-off of 4 µM for IC50 and -50% for Amax)
Amax (NCI-H2452, TP53 WT): -0.68%
sensitivity call (NCI-H2452, TP53 WT): insensitive (Sensitivity call for each compound was applied according to a cut-off of 4 µM for IC50 and -50% for Amax)
Amax (NCO2, TP53 MUT): -1.52%
sensitivity call (NCO2, TP53 MUT): insensitive (Sensitivity call for each compound was applied according to a cut-off of 4 µM for IC50 and -50% for Amax)
Amax (OCI-M1, TP53 MUT): -1.98%
sensitivity call (OCI-M1, TP53 MUT): insensitive (Sensitivity call for each compound was applied according to a cut-off of 4 µM for IC50 and -50% for Amax)
Amax (OE33, TP53 MUT): -2.82%
sensitivity call (OE33, TP53 MUT): insensitive (Sensitivity call for each compound was applied according to a cut-off of 4 µM for IC50 and -50% for Amax)
